Values of other authors in patent publication US10736889B2, “Method of treating dyskinesia” (Rutgers, The State University of New Jersey, priority 2011, dated 2020).
Like-named read-outs stand apart in the source and are kept apart here.

Tests used:
κ-opioid receptors = κ-opioid receptors (Homo sapiens, UniProt P41145); settings: for Ki: read-out: Ki for κ-opioid receptors; for IC50: read-out: IC50 for κ-opioid receptors
μ-opioid receptors = μ-opioid receptors (Homo sapiens, UniProt P35372); settings: for Ki: read-out: Ki for μ-opioid receptors
Sequence of μ-opioid receptors (P35372 whole entry): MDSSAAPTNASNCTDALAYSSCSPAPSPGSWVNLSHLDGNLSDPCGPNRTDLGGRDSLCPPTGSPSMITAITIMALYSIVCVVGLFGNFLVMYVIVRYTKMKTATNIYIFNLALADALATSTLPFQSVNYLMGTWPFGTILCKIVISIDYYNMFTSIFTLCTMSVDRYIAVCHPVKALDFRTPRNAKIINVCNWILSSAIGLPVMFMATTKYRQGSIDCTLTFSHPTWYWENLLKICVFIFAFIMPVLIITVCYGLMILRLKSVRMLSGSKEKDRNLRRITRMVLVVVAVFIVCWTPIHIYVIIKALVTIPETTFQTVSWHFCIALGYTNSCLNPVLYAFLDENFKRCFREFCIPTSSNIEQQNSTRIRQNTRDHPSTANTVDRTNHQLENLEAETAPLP

δ-opioid receptors = δ-opioid receptors (Homo sapiens, UniProt P41143); settings: for Ki: read-out: Ki for δ-opioid receptors
Sequence of δ-opioid receptors (P41143 whole entry): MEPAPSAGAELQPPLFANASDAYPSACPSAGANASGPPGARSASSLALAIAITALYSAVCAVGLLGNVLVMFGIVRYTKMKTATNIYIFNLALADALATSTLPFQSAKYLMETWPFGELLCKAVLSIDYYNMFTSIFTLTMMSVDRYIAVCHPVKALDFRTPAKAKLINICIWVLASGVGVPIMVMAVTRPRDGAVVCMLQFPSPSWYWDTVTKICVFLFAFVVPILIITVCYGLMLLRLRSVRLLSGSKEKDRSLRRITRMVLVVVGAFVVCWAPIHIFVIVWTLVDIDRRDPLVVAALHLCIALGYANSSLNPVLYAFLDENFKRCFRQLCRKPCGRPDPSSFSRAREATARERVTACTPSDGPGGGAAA

LID [1] = settings: variable effects in monkeys and humans
LID [2] = settings: only drug available
LID [3] = settings: in vivo
[4] = tested on: hemiparkinsonian marmoset monkeys; settings: lower doses
[5] = tested on: 6-hydroxydopamine-lesioned rat model
[6] = compared with Nalbuphine itself

Sequence of κ-opioid receptors (P41145 whole entry): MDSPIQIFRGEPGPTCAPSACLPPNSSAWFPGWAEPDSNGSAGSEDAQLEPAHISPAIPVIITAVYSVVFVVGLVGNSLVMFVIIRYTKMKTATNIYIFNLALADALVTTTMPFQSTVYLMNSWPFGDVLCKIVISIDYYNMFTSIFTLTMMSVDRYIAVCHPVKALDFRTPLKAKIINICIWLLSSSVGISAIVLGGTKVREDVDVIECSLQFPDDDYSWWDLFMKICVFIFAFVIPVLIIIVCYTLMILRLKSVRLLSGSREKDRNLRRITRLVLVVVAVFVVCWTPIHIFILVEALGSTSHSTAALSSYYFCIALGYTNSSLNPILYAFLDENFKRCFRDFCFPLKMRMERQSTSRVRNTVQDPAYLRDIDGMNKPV

CC(C)=CCN1CC[C@@]2(C)c3cc(O)ccc3C[C@@H]1C2C (stereo in doubt) [Pentazocine]
Ki (κ-opioid receptors): ~2.2 nM

C=CCN1CCC2(C)c3cc(O)ccc3CC1C2C (stereo not shown) [Alazocine]
Ki (μ-opioid receptors): ~3 nM
Ki (κ-opioid receptors): ~4.7 nM
Ki (δ-opioid receptors): ~15 nM

CNCC[C@@H](Oc1ccccc1C)c1ccccc1 [Atomoxetine]
IC50 (μ-opioid receptors): ~4190 nM
IC50 (κ-opioid receptors): ~4380 nM
IC50 (δ-opioid receptors; read-out: IC50 for δ-opioid receptors): < 5000 nM

CCC12CCN(CC3(O)CC3)C(Cc3ccc(O)cc31)C2(C)C (stereo not shown) [Bremazocine]
IC50 (κ-opioid receptors): ~0.16 nM
Ki (δ-opioid receptors): < 1000 nM

Oc1ccc2c(c1)[C@@]13CCCC[C@@]1(O)[C@@H](C2)N(CC1CCC1)CC3 [Butorphanol]
Ki (κ-opioid receptors): ~0.12 nM
Ki (δ-opioid receptors): ~12 nM

C=CCN1CC[C@]23c4c5ccc(OC)c4O[C@H]2[C@@H](O)C=C[C@H]3[C@H]1C5 [Nalodeine]
Ki (δ-opioid receptors): < 1000 nM

C=CCN1CC[C@]23c4c5ccc(O)c4O[C@H]2C(=O)CC[C@@]3(O)[C@H]1C5 [Naloxone]
LID (LID [1]): no change, increases or decreases

O=C1CC[C@@]2(O)[C@H]3Cc4ccc(O)c5c4[C@@]2(CCN3CC2CC2)[C@H]1O5 [Naltrexone]
LID (LID [1]): no change, increases or decreases

Oc1ccc2c3c1O[C@H]1c4oc5ccccc5c4C[C@@]4(O)[C@@H](C2)N(CC2CC2)CC[C@]314 [Naltriben]
Ki (μ-opioid receptors): ~19.8 nM
Ki (κ-opioid receptors): ~82.8 nM

NC(=O)c1ccc2c(c1O)[C@]13CCN(CC4CC4)C(C2)[C@]1(O)CCC(=O)C3 [Samidorphan]
Ki (μ-opioid receptors): ~0.052 nM
Ki (κ-opioid receptors): ~0.23 nM
Ki (δ-opioid receptors): ~2.6 nM

Cl.NC12CC3CC(CC(C3)C1)C2 [amantadine, 1-adamantanamine hydrochloride]
LID (LID [2]): modestly reduce LID

COc1cccc2c1[C@]13CCN(CC4CC4)[C@H](C2)[C@]1(OC)CCC(=O)C3 [cyprodime]
peak-dose LID (LID [3]): significantly reduces

Oc1ccc2c3c1O[C@H]1c4[nH]c5ccccc5c4C[C@@]4(O)[C@@H](C2)N(CC2CC2)CC[C@]314 [naltrindole]
levodopa-induced rotations [4]: reduce levodopa-induced rotations

Oc1ccc2c3c1O[C@H]1c4[nH]c5c(c4C[C@@]4(O)[C@@H](C2)N(CC2CC2)CC[C@]314)C[C@@]1(O)[C@H]2Cc3ccc(O)c4c3[C@@]1(CCN2CC1CC1)[C@H]5O4 [nor-BNI]
levodopa-induced hyperkinesias [5]: moderates

O=C(CCCCCCCCC(=O)Oc1ccc2c3c1O[C@H]1[C@@H](O)CC[C@@]4(O)[C@@H](C2)N(CC2CCC2)CC[C@]314)Oc1ccc2c3c1O[C@H]1[C@@H](O)CC[C@@]4(O)[C@@H](C2)N(CC2CCC2)CC[C@]314 [sebacoyl di-Nalbuphine ester]
bioavailability [6]: improved over that of Nalbuphine itself

N-allyl-normorphine [Nalorphine]
Ki (δ-opioid receptors): ~6.33 nM
